Converted amounts (≈) assume the structure as drawn.
Legend:
[1] = Solubility test using potassium phosphate buffer at pH 7.4; assay type: physicochemical; details: 5 mg prodrug in 10 mL potassium phosphate buffer pH 7.4, 37° C., HPLC-UV 254 nm; for solubility at 24 h: potassium phosphate buffer, 37 °C, pH 7.4, aqueous buffer, thermodynamic from solid, read-out: Solubility after 24 hours
Procedure: First, a respective one of the diclofenac prodrugs of EX5 to EX8 and EX12 was mixed with a potassium phosphate buffer (including 50 mM potassium phosphate, sodium chloride, and water; pH 7.4) and then placed in a constant temperature oscillator at 37° C. for 24 hours so as to dissolve the diclofenac prodrug, thereby obtaining a test sample. After that, the test sample was filtered through a filter having a pore size of 0.22 μm to obtain a filtrate. Next, the filtrate was mixed with acetonitrile in equal amounts, and then subjected to oscillation and centrifugation performed in sequence. The resultant supernatant fraction was subjected to HPLC with UV detection under a wavelength of 254 nm.

[2] = Determination of particle size (D90) after grinding; assay type: physicochemical; details: after grinding with mortar and homogenizer in 0.125 wt % Tween 20; initial particle size about 60 μm
Source text: The solid particles of the diclofenac prodrugs of EX5 and EX8 were subjected to grinding in order to be formulated into a soluble liquid suspension suitable for intraarticular injection. In general, first, the solid particles of diclofenac prodrugs and deionized water were mixed to form a liquid suspension. Next, the liquid suspension was ground using a homogenizer and then subjected to oscillation treatment to obtain a test sample. Then, the test sample was subjected to determination of particle size distribution. Afterwards, the test sample includes solid particles having a size ranging from 20 μm to 30 μm was centrifuged and lyophilized, followed by determination of purity using HLPC. […]
(§1) To be specific, 100 mg of the diclofenac prodrug of EX5 having an initial particle size of about 60 μm was manually ground using a mortar, and then mixed with 2.0 mL of an aqueous solution containing 0.125 wt % of Tween 20 and deionized water, so as to obtain a slurry. […] The thus determined average particle size D90 of the diclofenac prodrug of EX5 was 8.4 μm.
as §1, with “Meanwhile, 102” for “To be specific, 100”, “EX8” for “EX5”, “saline,” for “deionized water,”, “18.2” for “8.4”

| Structure (SMILES) | solubility at 24 h [1] [µg/mL] | Solubility after 24 hours [1] [µg/mL] | Solubility after 24 hours ([1]; listed as EX5 (crystalline)) [µg/mL] | average particle size D90 [2] [μm] |
| --- | --- | --- | --- | --- |
| O=C(Cc1ccccc1Nc1c(Cl)cccc1Cl)OCOC(=O)N1CCOCC1 [EX5 (amorphous), (2-(2-((2,6-dichlorophenyl)amino)phenyl)acetoxy)methyl morpholine-4-carboxylate] | – | 4.24 (≈ 9.65 µM) | – | – |
| O=C(Cc1ccccc1Nc1c(Cl)cccc1Cl)OCOC(=O)N1CCOCC1 [EX5, (2-(2-((2,6-dichlorophenyl)amino)phenyl)acetoxy)methyl morpholine-4-carboxylate] | – | – | 0.06 (≈ 0.137 µM) | 8.4 |
| O=C(Cc1ccccc1Nc1c(Cl)cccc1Cl)OCOC(=O)OCCCO [EX8, (((3-hydroxypropoxy)carbonyl)oxy)methyl 2-(2-((2,6-dichlorophenyl)amino)phenyl)acetate] | 28.4 (≈ 66.4 µM) | – | – | 18.2 |

The next lines start with results.

| solubility at 24 h [1] [µg/mL] | Structure (SMILES) | Solubility after 24 hours [1] [µg/mL] | Solubility after 24 hours ([1]; listed as EX5 (crystalline)) [µg/mL] | average particle size D90 [2] [μm] |
| --- | --- | --- | --- | --- |
| 0.33 (≈ 0.681 µM) | CC1(C)OCC(COC(=O)OCOC(=O)Cc2ccccc2Nc2c(Cl)cccc2Cl)O1 (stereo not shown) [EX6, ((((2,2-dimethyl-1,3-dioxolan-4-yl)methoxy)carbonyl)oxy)methyl 2-(2-((2,6-dichlorophenyl)amino)phenyl)acetate] | – | – | – |
| 269 (≈ 604 µM) | O=C(Cc1ccccc1Nc1c(Cl)cccc1Cl)OCOC(=O)OCC(O)CO (stereo not shown) [EX7, (((2,3-dihydroxypropoxy)carbonyl)oxy)methyl 2-(2-((2,6-dichlorophenyl)amino)phenyl)acetate] | – | – | – |

From patent US20230364101A1, “DICLOFENAC PRODRUG AND USE OF THE SAME” (Pumont Biotech Co., Ltd., priority 2022, published 2023)
